# Test results reported in patent publication US20230084839A1, “ACTIVE AGENTS AGAINST CORONAVIRUS INFECTIONS AND DISEASES CAUSED THEREBY” (Eberhard Karls Universität Tübigen Medizinische Fakultät, priority 2020, published 2023).
# Tests used:
# SARS-CoV-2 [1] = assay type: cell-based; conditions: 48 hours post-infection, DAPI+ cell count
# SARS-CoV-2 [2] = assay type: cell-based; conditions: Calu3 cells; for reduction of the cytopathic effect caused by viral infection: Data series 1, SARS-CoV-2, 10 and 1 μM, compared with mock and infected; for inhibitory effects on the virus-induced cytopathic effect: Data series 2, concentrations 10 μM-0.3125 μM
Structure (SMILES),concentration from which positive effects on the total number or survival of Calu3 cells after SARS-CoV-2 infection occur (SARS-CoV-2 [1]),reduction of the cytopathic effect caused by viral infection (SARS-CoV-2 [2]),inhibitory effects on the virus-induced cytopathic effect (SARS-CoV-2 [2]),positive effects on the total number or survival of Calu3 cells after SARS-CoV-2 infection (SARS-CoV-2 [1])
COc1cc2c(cc1-c1c(C)noc1C)ncc1[nH]c(=O)n([C@H](C)c3ccccn3)c12 [IBET151],approximately 20 nM,significant reduction,still evident even at the lowest concentrations,
"CN(C)C(=O)c1cc2cnc(Nc3ccc(N4CCNCC4)cn3)nc2n1C1CCCC1 [ribociclib, Ribociclib]",,no inhibitory effects,,
"CCN(CCO)CCCC(C)Nc1ccnc2cc(Cl)ccc12 (stereo not drawn) [hydroxychloroquine, Hydroxychloroquine]",,no inhibitory effects,,not observed
Cc1sc2c(c1C)C(c1ccc(Cl)cc1)=N[C@@H](CC(N)=O)c1nnc(C)n1-2 [CPI203],approximately 20 nM,significant reduction,still evident even at the lowest concentrations,
